In the NIST ThermoML archive (doi:10.1007/s10765-009-0593-3):

Assay: xn = mol fraction of the nth substance listed
Conditions: 101 kPa, Liquid; for speed of sound: Pulse-echo method

CCCOCC(C)OCC(C)O (stereo not given) [1-(1-methyl-2-propoxyethoxy)-2-propanol] + CCCCNCCCC
Conditions	mass density, 298.15 K [kg/m3]	mass density, 303.15 K [kg/m3]	mass density, 308.15 K [kg/m3]	speed of sound, 303.15 K [m/s]	speed of sound, 308.15 K [m/s]
x1 = 0.123	783.999	779.716	775.539	1232.1	1212.2
x1 = 0.1582	790.406	786.126	781.949	1233.9	1214
x1 = 0.1913	796.281	791.94	787.756	1235.5	1215.5
x1 = 0.2541	807.16	802.761	798.492	1238.1	1218.1
x1 = 0.3195	818.293	813.903	809.461	1240.4	1220.4
x1 = 0.3623	825.41	821.074	816.52	1241.7	1221.7
x1 = 0.4155	834.053	829.782	825.107	1243	1223.1
x1 = 0.4543	840.151	835.948	831.19	1243.9	1223.9
x1 = 0.4974	846.721	842.533	837.752	1244.7	1224.7
x1 = 0.5491	854.308	850.092	845.325	1245.6	1225.6
x1 = 0.6027	861.902	857.606	852.894	1246.4	1226.4
x1 = 0.6687	871.011	866.586	861.99	1247.1	1227.2
x1 = 0.6962	874.806	870.321	865.762	1247.4	1227.5
x1 = 0.7504	882.325	877.785	873.301	1248	1228
x1 = 0.7997	889.311	884.771	880.284	1248.4	1228.5
x1 = 0.8657	898.805	894.377	889.838	1249	1229.1
x1 = 0.8963	903.128	898.789	894.205	1249.3	1229.4
x1 = 0.9589	911.3	907.024	902.428	1250	1230
